Among the data in PubChem BioAssay AID179 (DTP/NCI, 2004) are EC50, IC50 and outcome values, retold here.

The subject of this assay is CEM cells HIV-1 protection, formazan growth assay. Description: NCI AIDS Antiviral Assay. To be noted: for IC50: measured here: growth of uninfected CEM cells. Summed up: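 Protection of CEM cells against HIV-1 was scored from cell growth (soluble formazan) across five concentrations, with parallel uninfected cells. Lack of protection may reflect toxicity.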

A word on the EC50: it is the concentration giving half of the maximal effect. What is called IC50 is the concentration needed to halve the response being measured. The low end stands for greater potency, the high end for weaker potency.

The source made the active and inactive calls.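 How the source made its calls: active means compounds giving half or more protection of infected cells from virus-caused growth loss, again on retest; inactive means the rest.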 Where a SMILES comes first, the peptide text is derived from it.

In the case of `CC12CCC([C@H](C(O)C3CCCCC3)C1=O)C2(C)C` (stereo not given in full), the EC50 was more than 200 µM and the IC50 was determined as 52.5 µM. As for `CCOC(=O)C1SC(=Nc2ccc(Cl)cc2C)N=C1C` (stereo not given), the EC50 was more than 32.4 µM and the IC50 is more than 32.4 µM. For `Nc1nc2ncn(CC(O)CO)c2c(=O)[nH]1` (stereo not given), the EC50 was more than 60.3 µM and the IC50 is more than 60.3 µM. `Cc1cc(=O)c(C#N)c2c(C#N)c(N)[nH]n12`: the EC50 is more than 200 µM and the IC50 was more than 200 µM.

Take `CC(NNC(=O)c1ccncc1)c1cccc(C(F)(F)F)c1` (stereo not given): the EC50 was more than 200 µM and the IC50 is 195 µM. Take `CC(C)(C)N/N=C(\Cc1occc(=O)c1O)C(=O)Nc1ccc([N+](=O)[O-])cc1[N+](=O)[O-]`: the EC50 was more than 158 µM and the IC50 is more than 158 µM. As for `O=C(O)c1ccccc1C(=O)NC(Cc1ccccc1)(C(=O)O)C(=O)O`, the EC50 was more than 200 µM and the IC50 is more than 200 µM. As for `CCOC(=O)/C(=C\c1c(C)[nH]c2ccccc12)P(=O)(OCC)OCC`, the concentration giving a half-maximal response (EC50) was 69.2 µM and the IC50 was found to be 110 µM. For `COC(=O)C1C2c3ccccc3-c3ccccc3C2(OC(C)=O)[C@@]1(Cl)C(=O)OC` (stereo not given in full), the EC50 was more than 43.7 µM and the IC50 was determined as 6.61 µM. For the compound `COc1cc(COC(=O)NC(Cc2cccs2)C(=O)O)c([N+](=O)[O-])cc1OC` (stereo not given), the EC50 was more than 603 µM and the IC50 is 427 µM. In the case of `CC(C)OP(=O)(OC(C)C)C1=NN(c2ccc([N+](=O)[O-])cc2)C(P(=O)(OC(C)C)OC(C)C)=NN1c1ccc([N+](=O)[O-])cc1`, the EC50 is more than 2.19 µM and the IC50 was more than 2.19 µM. As for `CC(C)CC(NC(=O)C(Cc1cnc[nH]1)NC(=O)C(CC(N)=O)NC(=O)C(NC(=O)C(CO)NC(=O)C(Cc1ccc(O)cc1)NC(=O)C(CO)NC(=O)C(C)N)C(C)O)C(=O)O` (stereo not given) (H-ASYSTNHL-OH; configuration not given here), the EC50 is more than 70.8 µM and the IC50 was more than 70.8 µM.

For `COC(=O)C12C3C4C1C1C2C3C41C(=O)N(C(C)C)C(C)C` (stereo not given), the EC50 is more than 871 µM and the half-inhibitory concentration (IC50) was more than 871 µM. On to `O=C1/C(=C/c2ccco2)N=C2Sc3c(nc[nH]c3=O)N12`, for which the EC50 is more than 200 µM and the IC50 was more than 200 µM. Take `CC(Oc1ccc2cc(C(=O)c3ccccc3)c(=O)oc2c1)C(=O)O` (stereo not given): the result was inactive. As to `COC(=O)[C@H](Cc1c[nH]c2ccccc12)NP(=O)(OCCC#N)OCC1OC(n2cc(C)c(=O)[nH]c2=O)CC1N=[N+]=[N-]` (stereo not given in full), the half-maximal effective concentration (EC50) was 55 µM and the IC50 was 186 µM. The like results for `COCCCCCCCCCCCC(=O)OCC1OC(n2cc(C)c(=O)[nH]c2=O)CC1F` (stereo not given) were, in that order, 0.0112 µM and 0.2 µM. As to `C#CC(C)(C)C(/C=N\NC(=O)O[C@H]1CC(C)CCC1C(C)C)CCC(=O)OC` (stereo not given in full), the EC50 was more than 200 µM and the IC50 is 25.1 µM.

Regarding `COc1ccccc1-c1cc(=O)c2cc(C)c(C)c(C(=O)O)c2o1`, the result was inactive. As to `NC(=O)c1cnc2cc(O)c(O)cc2c1`, the EC50 is more than 209 µM and the IC50 is 14.1 µM. As for `COC(=O)/C(=N\NC(N)=O)C(C(=O)C=C(C)C)C(=O)C(=O)Nc1ccc(Cl)c(Cl)c1` (stereo not given), the EC50 was more than 550 µM and the IC50 worked out at 457 µM.

In the case of `c1ccc2c(c1)CCc1c(-c3noc4c3CCc3ccccc3-4)noc1-2`, the EC50 was more than 148 µM and the IC50 was more than 148 µM. As for `O=C(CC(=O)c1cccc([N+](=O)[O-])c1)C(=O)Nc1ccccc1`, the EC50 is more than 417 µM and the IC50 was more than 417 µM.

Take `CC(=O)NS(=O)(=O)c1ccc(-n2sc3ccccc3c2=O)cc1`: the EC50 was 12.3 µM and the IC50 amounted to 30.9 µM. As for `Cc1c(C)c2ccc(OC(C)C(=O)O)cc2oc1=O` (stereo not given), the outcome was inactive. `O=C(CSc1nnc(-c2ccc(N=Cc3ccc(Cl)cc3)cc2)o1)Nc1cccc(Cl)c1`: the EC50 was more than 74.1 µM and the IC50 was more than 74.1 µM. On to `Nc1o[nH]c(=O)c1-c1ccccc1`, for which the EC50 was more than 200 µM and the IC50 is more than 200 µM. As to `COC(=O)C(C(=O)C(=O)Nc1nc2ccc([N+](=O)[O-])cc2s1)c1nc2ccc(Cl)cc2[nH]c1=O` (stereo not given), the EC50 was more than 51.3 µM and the IC50 is more than 51.3 µM. For `CC1OC(c2ccc3c(c2O)C(=O)C2=C(C3=O)[C@H]3OC(=O)C[C@H]3O[C@@H]2C)CC(N(C)C)C1O` (stereo not given in full), the EC50 was more than 107 µM and the IC50 was 0.0537 µM. For the compound `COP1(=S)OCC2CCC[C@@H]2O1` (stereo not given in full), the result was inactive.

Consider `Cc1ccc(NC(=O)CC(=O)n2nc(C)c(N=Nc3ccccc3Cl)c2C)cc1`, for which the outcome was inactive. With `CCOC(=O)C1(c2ccccc2)CCCNCC1` (stereo not given), the EC50 was more than 112 µM and the IC50 was more than 112 µM. For `Cn1ccoc1=Nc1ccc(Cl)c(Cl)c1`, the EC50 is more than 200 µM and the IC50 was more than 200 µM.

In the case of `CCCC1C(=O)Nc2cccc3ncn(c23)C1=O` (stereo not given), the EC50 was more than 200 µM and the half-inhibitory concentration (IC50) is 186 µM. With `c1ccc(C2=Nc3ccccc3N=C(c3ccccc3)C2)cc1`, the EC50 is more than 17.8 µM and the IC50 is more than 17.8 µM.

Consider `CN1CCCCCCC1CO` (stereo not given), for which the outcome was inactive. As to `O=S1(=O)CC2(N3CCCC3)CCCCC21` (stereo not given), the EC50 is more than 1100 µM and the IC50 was 617 µM. On to `CCOC(=O)C(NC(=O)CC)(Nc1ccc(F)cc1F)C(F)(F)F` (stereo not given), for which the EC50 was more than 200 µM and the IC50 is more than 200 µM. With `CCOc1ccc(Nc2nc(C)c(C(=O)CC(=O)C(=O)Nc3ccc(C(C)C)cc3C(C)C)s2)cc1`, the EC50 is more than 200 µM and the IC50 was determined as 105 µM. In the case of `COc1cc(-c2cc(=O)c3cc4c(=O)cc(-c5cc(OC)c(OC)c(OC)c5)oc4cc3o2)cc(OC)c1OC`, the EC50 was more than 100 µM and the IC50 was more than 100 µM. As for `CC1CC/C(=C\c2ccc(Cl)cc2)C2OC(N)=C(C#N)C(c3ccc(Cl)cc3)=C12` (stereo not given), the outcome was inactive. Turning to `Cc1ccc(NC(=O)CC/C(CC(=O)c2ccc(F)cc2)=N\NC(=O)C(=O)NN)cc1C`, the EC50 was more than 11.7 µM and the IC50 was more than 11.7 µM. On to `Cc1c(C(=O)N(CCO)CCO)[n+](=O)c2ccccc2n1[O-]`, for which the EC50 is more than 575 µM and the half-inhibitory concentration (IC50) was more than 575 µM. As to `COc1cc2c3c(c1)/C(=N\N)CCN3CCC2`, the EC50 is more than 200 µM and the concentration for half-maximal inhibition (IC50) turned out to be 115 µM. For the compound `COC(=O)CSc1[nH]c2nc(C)nc(Nc3ccccc3)c2c1C#N`, the EC50 was more than 200 µM and the IC50 was more than 200 µM. As for `c1ccc(-c2cc(N3CCOCC3)c3ccccc3n2)cc1`, the outcome was inactive. As for `CC1(C)CC(C)(C)CC(O)(C2(O)CC(C)(C)CC(C)(C)C2)C1`, the EC50 was more than 8.71 µM and the concentration for half-maximal inhibition (IC50) was more than 8.71 µM. For the compound `COc1cc(C2SCC(=O)N2c2ccc(-n3c(-c4ccccc4)nc4ccccc4c3=O)cc2)cc(OC)c1OC` (stereo not given), the EC50 was more than 200 µM and the IC50 was 178 µM. As for `OC1(c2ccccc2)CCCCCCCCC(O)(c2ccccc2)CCCCCCCC1` (stereo not given), the EC50 was more than 200 µM and the IC50 is more than 200 µM. `CCOC(=O)NP(=O)(Nc1ccccc1)Nc1ccccc1`: the EC50 is more than 200 µM and the IC50 is more than 200 µM. Take `COc1ccc(/C=C/C(=O)OCCc2ccccc2)cc1OC`: the EC50 was more than 25.1 µM and the IC50 is more than 25.1 µM. With `CCN(CC)C(=O)c1cccc2cccc(OC)c12`, the outcome was inactive.
